Patent US20240043394A1, “PROTEASOME ENHANCERS AND USES THEREOF” (Board of Trustees of Michigan State University, priority 2020, published 2024)

Tests used:
[1] = target: T1, purified human 20S proteasome, T-L site (Homo sapiens, UniProt P25787+P60900); assay: 20S proteasome small peptide assay, Boc-LRR-AMC trypsin-like probe; type: biochemical; conditions: for AC200 T-L site: concentration needed to double rate vs vehicle
T1 construct: purchased Boston Biochem or Life Sensors E-360 or ps020
Method: (§1) In vitro testing, 20S activation: The 20S proteasome activity of the compounds was assessed by utilizing the standard fluorogenic 7-amino-methylcoumarin (AMC) conjugated small peptide substrates that correspond to each of the catalytic sites in the 20S proteasome: chymotryptic-like site (Suc-LLVY-AMC), caspase-like site (Z-LLE-AMC), and trypsin-like site (Boc-LRR-AMC). When the small peptide substrate is degraded by the 20S proteasome, the AMC fluorophore is released and quantified to measure the rate of proteolytic cleavage. The 20S proteasome activity of the small molecules was evaluated at varying concentrations to determine the concentration at which the rate of proteolysis was doubled (i.e. the concentration needed to induce 200% activity) compared to the vehicle control (hereafter named as AC200). Concentrations ranging from 1.25 μM to 80 μM of each of compound were added to wells that contained 0.5 nM of purified human proteasome.
(§2) The overall enhancement of the rate of proteolysis of the 20S proteasome by a small molecule was first evaluated by adding a combination of all three peptide substrates to the treated sample. The combination of all three substrates represents a more accurate measurement of proteolytic activity of the proteasome because the catalytic sites housed in the β ring of the 20S proteasome communicate through allosteric interactions. For example, when a protein substrate encounters the chymotryptic-like site, a conformational change will occur activating the caspase-like site.^61 The individual contribution of each of the three catalytic sites was subsequently evaluated by adding only the corresponding peptide probes to gain insight into the contribution of each site on the overall enhanced proteolytic activity.
(§3) The fluorescent output, due to release of the AMC fluorophore, was then converted to the fold increase compared to a vehicle control sample, and the AC200 was calculated. […] (Table 1).
(§4) AC200 represents the concentration needed to double (e.g., 200%) the rate of substrate degradation compared to vehicle control. Max fold is the maximum fold rate increase compared to vehicle control.
(§5) 20S Proteasome Small Peptide Assay: Activity assays were carried out in a black flat/clear bottom 96 well plate with a […] volume. Concentrations of the potential activators, varying from 80 μM to 1.25 μM, were added to the well that contained 1 nM 20S proteasome purchased from either Boston Biochem (catalog number E-360) or Life Sensors (catalog number ps020), in a […] buffer at a pH of 7.8. This solution was left to incubate at 37° C. for 15 minutes. For the assay for the overall proteasome activity, 13.33 μM of each small peptide substrate is added. The 96 well plate is then placed into a plate reader (SpectraMax M5e spectrometer) and the plate reader will take a fluorescent reading every 5 minutes for an hour at 37° C. The enzymatic activity of the 20S proteasome is quantified using the fluorescent output at 380-460 nm, which is converted to max fold increase over the untreated sample. The activity of the individual catalytic assays is identical to the assay that assesses the overall activity of the 20S proteasome except only one small peptide substrate is added. To evaluate the activity of the CT-L and the Casp-L sites, 10 μM of the Suc-LLVY-AMC (Boston Biochem S-280) and Z-LLE-AMC (Boston Biochem S-230) were added, respectively. To evaluate the activity of the T-L site, 20 μM of the Boc-LRR-AMC (Boston Biochem S-300) is added.

[2] = target: T2, purified human 20S proteasome, CT-L site (Homo sapiens, UniProt P25787+P60900); assay: 20S proteasome small peptide assay, Suc-LLVY-AMC chymotryptic-like probe; type: biochemical; conditions: for AC200 CT-L site: concentration needed to double rate vs vehicle; for Max Fold CT-L site: maximum fold rate increase vs vehicle
T2 construct: purchased Boston Biochem or Life Sensors E-360 or ps020
Method: as §1, §2, §3, §4, §5

[3] = target: T3, purified human 20S proteasome (Homo sapiens, UniProt P25787+P60900); assay: 20S proteasome small peptide assay, combination of all three fluorogenic substrates (CT-L/Casp-L/T-L); type: biochemical; conditions: three probes combined; for AC200 CT-L/Casp-L/T-L: concentration needed to double (200%) the rate of substrate degradation vs vehicle; for Max Fold CT-L/Casp-L/T-L: maximum fold rate increase vs vehicle control
T3 construct: purchased Boston Biochem or Life Sensors E-360 or ps020
Method: as §1, §2, §3, §4, §5

[4] = target: T4, purified human 20S proteasome, Casp-L site (Homo sapiens, UniProt P25787+P60900); assay: 20S proteasome small peptide assay, Z-LLE-AMC caspase-like probe; type: biochemical; conditions: for AC200 Casp-L site: concentration needed to double rate vs vehicle
T4 construct: purchased Boston Biochem or Life Sensors E-360 or ps020
Method: as §1, §2, §3, §4, §5

[5] = target: 26S proteasome (Homo sapiens, UniProt P25787+P60900); assay: Fluorogenic small peptide degradation assay with the 26S proteasome (ATP and magnesium chloride added); type: biochemical; conditions: for 26S proteasome activation, in words: concentration range 0-80 μM
Method: The fluorogenic small peptide degradation assay was conducted again, with the 26S proteasome in place of the 20S proteasome. To ensure that the 26S proteasome remained in its fully assembled complex, ATP and magnesium chloride were added.

[6] = tested on: A53T mutant α-synuclein in Hek-293T cells; assay: In cell degradation of A53T α-synuclein (Western blot); type: cell-based; conditions: 10 hours
Method: Error bars denote standard deviation. One-way ANOVA statistical analysis was used to determine statistical significance (ns=not significant, *p<0.05, **p<0.01, ***p<0.001, ****p<0.0001) (FIG. 4B).
Cellular efficacy: The A53T mutation of α-synuclein has been linked to early on-set familial Parkinson's disease and appears to oligomerize faster than the wild-type protein. […] Hek-293T cells were transiently transfected with an inducible Tet-One A53T mutant α-synuclein. The cells were treated with 100 ng/mL of doxycycline to induce the production of the A53T mutant. […] The cells were then lysed and the remaining A53T α-synuclein was visualized and quantified via Western Blotting (FIG. 4, n=4).
In cell degradation of A53T α-synuclein: In a 6 well plate, Hek293T cells were grown to 80% confluency and then transfected using Xfect biopolymer transfection system with the Tet-One A53T α-synuclein plasmid. 24 hours post transfection, 100 ng/mL of doxycycline was added to induce A53T α-synuclein expression. After 24 hours of protein induction, media was removed that contained the doxycycline and was washed with PBS. Media with the desired drug concentration or DMSO was added and treated for 10 hours. After the cells were treated with the test compounds or DMSO, the cells were scraped and the pelleted (300 g for 5 minutes). The supernatant was taken off and the cell pellet was washed with ice cold PBS and then lysed with RIPA buffer with added protease inhibitors. The cell lysate was incubated for 20 minutes on ice. The lysate was centrifuged for 15 minutes at 500 g and then the supernatant was collected. Concentrated SDS loading buffer was added and the samples were boiled for 10 minutes. The samples were then resolved on a 4-20% Tris-glycine SDS-PAGE gel and immunoblotted with mouse monoclonal anti α-synuclein IgG (1:2000) and anti-mouse HRP-linked IgG (1:2000). Blots were developed with ECL Westem reagent and imaged with an Azure Biosystems 3000 imager.

[7] = target: T3, purified human 20S proteasome; assay: Digestion of purified α-synuclein by purified 20S proteasome (silver staining); type: biochemical
Method: Quantification of α-synuclein degradation by each compound was done in triplicate. One-way ANOVA statistical analysis was used to determine statistical significance (ns=not significant, *p<0.05, *p<0.01, ***p<0.001, ****p<0.0001).
In vitro testing, IDP degradation: The ability of our small molecules 20S proteasome activators to degrade pathologically relevant IDPs was evaluated in vitro and in cells. […] Then, purified α-synuclein was added and the digestion was incubated at 37° for 6 hours. An SDS loading buffer was added and the samples were boiled to halt α-synuclein degradation. The percentage of remaining α-synuclein was visualized and quantified using silver staining (FIG. 3). Compound 2 was able to increase the rate of degradation of full length α-synuclein. At the highest concentration (5 μM), α-synuclein was reduced up to 33%.
Digestion of purified α-synuclein: Degradation assays were carried out in a 50 μL reaction volume of […] buffer at a pH of 7.8, 0.5 μM of purified α-synuclein, and 7.5 nM purified human 20S proteasome. The 20S proteasome was first diluted to 8.56 nM in the Tris-HCl buffer and 1 μL of the test compounds or DMSO was added. This mixture was incubated for 20 minutes at 37° C. After this incubation, 5 μL of a 5 μM stock of α-synuclein was added. The degradation mixture was incubated at 37° C. for 5 hours. The reaction was stopped with addition of concentrated SDS loading buffer and boiled for 10 minutes. After the samples were boiled, they were resolved on a 4-20% Tris-glycine SDS-PAGE gel and visualized using silver staining.

[8] = maximum fold rate increase vs vehicle

| AC200 T-L site [1] [µM] | AC200 CT-L site [2] [µM] | Max Fold CT-L site [2] [fold] | AC200 CT-L/Casp-L/T-L [3] [µM] | Max Fold CT-L/Casp-L/T-L [3] [fold] | AC200 Casp-L site [4] [µM] | 26S proteasome activation, maximum fold increase over the vehicle control ([5]; at higher concentrations (range 0-80 μM)) [fold] | Max Fold T-L site [1, 8] [fold] | Max Fold Casp-L site [4, 8] [fold] | depletion of α-synuclein over concentration range, in words ([7]; 0.1 μM to 5 μM) | decrease of α-synuclein ([7]; 0.5 μM compound, 37° C., 6 hours) [%] | reduction of α-synuclein ([7]; 5 μM compound, 37° C., 6 hours) [%] | Structure (SMILES) | 26S proteasome activation, in words [5] | reduction of A53T mutant α-synuclein, in words ([6]; 3 μM (lowest concentration)) | decrease of accumulated A53T α-synuclein ([6]; 10 μM, normalized to vehicle) [%] |
| --- | --- | --- | --- | --- | --- | --- | --- | --- | --- | --- | --- | --- | --- | --- | --- |
| >80 | 7 | 8 | 13.5 | ~4 | >80 | 2 |  |  |  |  |  | CN(C)CCCN1c2ccccc2Sc2ccc(Cl)cc21 [CPZ, chlorpromazine, reference compound] | did not enhance the proteolytic activity of the 26S proteasome |  |  |
| 0.3 | 0.7 | 9.4 | 0.4 | 11 | 1.8 |  | 6 | 9.4 | clear dose dependent depletion | 34 | 57 | O=C(CCN1c2ccccc2Sc2ccc(Cl)cc21)N(c1ccc(F)cc1)c1ccc(F)cc1 [Compound 19, 3-(2-chloro-10H-phenothiazin-10-yl)-N,N-bis(4-fluorophenyl)propanamide] | did not display any 26S proteasome activation | reduce the concentration of the A53T mutant α-synuclein significantly | 58 |
